Measurements reported in ChEMBL document CHEMBL6074653, “Reversal of insulin resistance to combat type 2 diabetes mellitus by newer thiazolidinedione's in fructose induced insulin resistant rats” (Eur J Med Chem, 2024).
Activity calls are given as the source filed them. The calls are words filed in the database; no cut-off is given here.

Experiments:
Rattus norvegicus [1] = assay: Anti-diabetic activity in fructose-treated male Wistar rat assessed as ballooning degeneration in liver 30 mg/kg, po administered for 15 days by H and E staining based analysis; format: functional, organism-based; details: time 15.0 day
Rattus norvegicus [2] = assay: Anti-diabetic activity in fructose-treated male Wistar rat assessed as increase in HDL level at 30 mg/kg, po administered for 15 days (reference value: 25.35 +/-2.03 mg/dL); format: functional; details: time 15 day
Rattus norvegicus [3] = assay: Anti-diabetic activity in fructose-treated male Wistar rat assessed as increase in glycogen content in skeletal muscle at 30 mg/kg, po administered for 15 days; format: functional, organism-based; details: time 15.0 day
L6 = assay: Induction of glucose uptake in rat L6 cells incubated for 24 hrs by GOD-POD technique; format: functional; parameters: concentration or dose not given beside the values
Rattus norvegicus [4] = assay: Anti-diabetic activity in fructose-treated male Wistar rat assessed as decrease in insulin level at 30 mg/kg, po administered for 15 days by insulin tolerance test; format: functional, organism-based; details: time 15.0 day
Rattus norvegicus [5] = assay: Anti-diabetic activity in fructose-treated male Wistar rat assessed as increase in CAT level in liver at 30 mg/kg, po administered for 15 days (reference value: 27.65 +/-1.02 U/min); format: functional; details: time 15 day
[6] = Acute toxicity in male Wistar rat assessed as body weight gain at 10 mg/kg, po administered for 15 days; format: organism-based; details: in vivo, 360 h, time 15 day
[7] = Retention time of the compound by HPLC analysis; format: physicochemical
Rattus norvegicus [8] = assay: Anti-diabetic activity in fructose-treated male Wistar rat assessed as decrease in adipocyte count 30 mg/kg, po administered for 15 days by H and E staining based analysis; format: functional, organism-based; details: time 15.0 day
[9] = Tmax in male Wistar rat at 30 mg/kg, po measured upto 24 hrs; format: ADME, organism-based; details: in vivo
Rattus norvegicus [10] = assay: Anti-diabetic activity in fructose-treated male Wistar rat assessed as steatosis in liver 30 mg/kg, po administered for 15 days by H and E staining based analysis; format: functional, organism-based; details: time 15.0 day
Rattus norvegicus [11] = assay: Anti-diabetic activity in Wistar rat Diaphragm assessed as […] at 30 mg/kg, po administered for 15 days; format: functional, organism-based; details: time 15.0 day
Rattus norvegicus [12] = assay: Anti-diabetic activity in fructose-treated male Wistar rat assessed as increase in GSH level in liver at 30 mg/kg, po administered for 15 days (reference value: 39.98 +/-0.86 nM/mg ); format: functional; details: time 15 day
[13] = AUC (0 to t) in male Wistar rat at 30 mg/kg, po measured upto 24 hrs; format: ADME, organism-based; details: in vivo
Rattus norvegicus [14] = assay: Anti-diabetic activity in fructose-treated male Wistar rat assessed as kupffer cell hyperplasia in liver 30 mg/kg, po administered for 15 days by H and E staining based analysis; format: functional, organism-based; details: time 15.0 day
[15] = Half life in male Wistar rat at 30 mg/kg, po measured upto 24 hrs; format: ADME, organism-based; details: in vivo
[16] = target: T1, Peroxisome proliferator-activated receptor gamma (Homo sapiens) (UniProt P37231); assay: Agonist activity at PPARgamma in human HepG2 cells assessed as increase in PPARgamma transcription factor expression by ELISA analysis; format: cell-based; details: filed as agonist, dose 6.25-50 µM
T1 sequence (whole entry): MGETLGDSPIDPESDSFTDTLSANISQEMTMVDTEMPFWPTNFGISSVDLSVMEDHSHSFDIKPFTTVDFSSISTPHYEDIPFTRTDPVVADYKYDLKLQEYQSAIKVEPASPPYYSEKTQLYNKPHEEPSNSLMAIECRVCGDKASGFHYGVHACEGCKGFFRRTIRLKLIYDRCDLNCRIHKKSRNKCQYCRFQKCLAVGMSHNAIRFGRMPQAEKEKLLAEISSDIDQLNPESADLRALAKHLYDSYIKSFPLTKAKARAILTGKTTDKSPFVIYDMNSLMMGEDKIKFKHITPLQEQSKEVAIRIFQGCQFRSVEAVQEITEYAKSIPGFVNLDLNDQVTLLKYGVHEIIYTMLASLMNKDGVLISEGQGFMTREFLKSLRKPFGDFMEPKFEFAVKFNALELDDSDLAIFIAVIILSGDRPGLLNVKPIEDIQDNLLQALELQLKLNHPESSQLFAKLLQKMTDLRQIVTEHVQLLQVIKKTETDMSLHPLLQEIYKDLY

[17] = Acute toxicity in male Wistar rat assessed as change in body weight at 10 mg/kg, po administered for 15 days; format: organism-based; details: in vivo, 360 h, time 15 day
[18] = Cmax in male Wistar rat at 30 mg/kg, po measured upto 24 hrs; format: ADME, organism-based; details: in vivo
Rattus norvegicus [19] = assay: Anti-diabetic activity in fructose-treated male Wistar rat assessed as increase in SOD level in liver at 30 mg/kg, po administered for 15 days (reference value: 13.25 +/-1.35 U/ml); format: functional; details: time 15 day
[20] = AUC (0 to infinity) in male Wistar rat at 30 mg/kg, po measured upto 24 hrs; format: ADME, organism-based; details: in vivo
Rattus norvegicus [21] = assay: Anti-diabetic activity in fructose-treated male Wistar rat assessed as decrease in SGPT level at 30 mg/kg, po administered for 15 days (reference value: […]); format: functional; details: time 15 day
Rattus norvegicus [22] = assay: Anti-diabetic activity in fructose-treated male Wistar rat assessed as decrease in MDA level in liver at 30 mg/kg, po administered for 15 days (reference value: 294.65 +/-11.78 nM/mg ); format: functional; details: time 15 day
Rattus norvegicus [23] = assay: Anti-diabetic activity in fructose-treated male Wistar rat assessed as decrease in triglycerides level at 30 mg/kg, po administered for 15 days (reference value: 140.03 +/-3.55 mg/dL); format: functional; details: time 15 day
Rattus norvegicus [24] = assay: Anti-diabetic activity in fructose-treated male Wistar rat assessed as increase in total cholesterol level at 30 mg/kg, po administered for 15 days (reference value: 93.68 +/-1.68 mg/dL); format: functional; details: time 15 day
Rattus norvegicus [25] = assay: Anti-diabetic activity in fructose-treated male Wistar rat assessed as decrease in VLDL level at 30 mg/kg, po administered for 15 days (reference value: 28 +/-0.28 mg/dL); format: functional; details: time 15 day
Rattus norvegicus [26] = assay: Anti-diabetic activity in fructose-treated male Wistar rat assessed as decrease in SGOT level at 30 mg/kg, po administered for 15 days (reference value: […]); format: functional; details: time 15 day
Rattus norvegicus [27] = assay: Anti-diabetic activity in fructose-treated male Wistar rat assessed as sinusoidal congestion in liver 30 mg/kg, po administered for 15 days by H and E staining based analysis; format: functional, organism-based; details: time 15.0 day
[28] = Drug recovery in rat plasma at 150 mg/kg, po by HPLC analysis; format: ADME, organism-based; details: in vivo
Rattus norvegicus [29] = assay: Anti-diabetic activity in fructose-treated male Wistar rat assessed as increase in glycogen content in liver at 30 mg/kg, po administered for 15 days; format: functional, organism-based; details: time 15.0 day
[30] = Drug recovery in rat plasma at 50 mg/kg, po by HPLC analysis; format: ADME, organism-based; details: in vivo
Rattus norvegicus [31] = assay: Anti-diabetic activity in fructose-treated male Wistar rat assessed as increase in LDL level at 30 mg/kg, po administered for 15 days (reference value: 40.32 +/-1.08 mg/dL); format: functional; details: time 15 day
Rattus norvegicus [32] = assay: Anti-diabetic activity in fructose-treated male Wistar rat assessed as decrease in fasting blood glucose level at 30 mg/kg, po administered for 15 days; format: functional, organism-based; details: time 15.0 day
Rattus norvegicus [33] = assay: Anti-diabetic activity in fructose-treated male Wistar rat assessed as increase in HOMO-IR level at 30 mg/kg, po administered for 15 days; format: functional, organism-based; details: time 15.0 day
[34] = Drug recovery in rat plasma at 100 mg/kg, po by HPLC analysis; format: ADME, organism-based; details: in vivo
Rattus norvegicus [35] = assay: Anti-diabetic activity in fructose-treated male Wistar rat assessed as lymphocyte infiltration in liver 30 mg/kg, po administered for 15 days by H and E staining based analysis; format: functional, organism-based; details: time 15.0 day
Rattus norvegicus [36] = assay: Anti-diabetic activity in fructose-treated male Wistar rat assessed as change in HOMO-IR level at 30 mg/kg, po administered for 15 days; format: functional, organism-based; details: time 15.0 day
[37] = target: T1, Peroxisome proliferator-activated receptor gamma (Homo sapiens); assay: Agonist activity at Gal4-fused human PPARgamma transfected in African green monkey CV-1 cells assessed as receptor transactivation incubated for 24 hrs by luciferase based assay relative to control; format: cell-based

## N#C[C@H]1CCCN1C(=O)CN1C(=O)S/C(=C\c2ccc(F)cc2)C1=O
Rattus norvegicus [1]
  Activity: Active
Rattus norvegicus [2]
  Activity: 51.39 mg/dL
Rattus norvegicus [3]
  Activity: Active
L6
  Activity: 74.58%
Rattus norvegicus [4]
  Activity: Active
Rattus norvegicus [5]
  Activity: 48.65 U/min
[6]
  Activity: Non-toxic
[7]
  Retention_time: 6.7 min
Rattus norvegicus [8]
  Activity: Active
[9]
  Tmax: 2 h
Rattus norvegicus [10]
  Activity: Active
Rattus norvegicus [11]
  Activity: Active
Rattus norvegicus [12]
  Activity: 58.63 nM/mg
[13]
  AUC(0-t) at 24 h: 5620 ng·h/mL
Rattus norvegicus [14]
  Activity: Active
[15]
  half-life: 3.96 h
[16]
  Activity: Dose-dependent-effect
[17]
  Activity: Non-toxic
[18]
  Cmax: 926 ng/mL
Rattus norvegicus [19]
  Activity: 20.36 U/ml
[20]
  AUC(0-inf): 6240 ng·h/mL
Rattus norvegicus [21]
  Activity: 39.72 U/L
Rattus norvegicus [22]
  Activity: 224.65 nM/mg
Rattus norvegicus [23]
  Activity: 86.15 mg/dL
Rattus norvegicus [24]
  Activity: 112.3 mg/dL
Rattus norvegicus [25]
  Activity: 17.23 mg/dL
Rattus norvegicus [26]
  Activity: 46.36 U/L
Rattus norvegicus [27]
  Activity: Active
[28]
  Drug recovery: 98.36%
Rattus norvegicus [29]
  Activity: Active
[30]
  Drug recovery: 99.96%
Rattus norvegicus [31]
  Activity: 42.74 mg/dL
Rattus norvegicus [32]
  Activity: Active
Rattus norvegicus [33]
  Activity: Active
[34]
  Drug recovery: 99.58%
Rattus norvegicus [35]
  Activity: Active

## COc1ccc(/C=C2\SC(=O)N(CC(=O)N3CCC[C@@H]3C#N)C2=O)cc1
L6
  Activity: 58.66%

## CN(C)c1ccc(/C=C2\SC(=O)N(CC(=O)N3CCC[C@@H]3C#N)C2=O)cc1
L6
  Activity: 64.18%

## N#C[C@H]1CCCN1C(=O)CN1C(=O)S/C(=C\c2ccc(O)cc2)C1=O
Rattus norvegicus [1]
  Activity: Active
Rattus norvegicus [2]
  Activity: 53.25 mg/dL
Rattus norvegicus [3]
  Activity: Active
L6
  Activity: 79.29%
Rattus norvegicus [4]
  Activity: Active
Rattus norvegicus [5]
  Activity: 52.36 U/min
[6]
  Activity: Non-toxic
[7]
  Retention_time: 4.4 min
Rattus norvegicus [8]
  Activity: Active
[9]
  Tmax: 2.21 h
Rattus norvegicus [10]
  Activity: Active
Rattus norvegicus [11]
  Activity: Active
Rattus norvegicus [12]
  Activity: 61.35 nM/mg
[13]
  AUC(0-t) at 24 h: 5980 ng·h/mL
Rattus norvegicus [14]
  Activity: Active
[15]
  half-life: 4.21 h
[16]
  Activity: Dose-dependent-effect
[17]
  Activity: Non-toxic
[18]
  Cmax: 1030 ng/mL
Rattus norvegicus [19]
  Activity: 24.68 U/ml
[20]
  AUC(0-inf): 6620 ng·h/mL
Rattus norvegicus [21]
  Activity: 37.12 U/L
Rattus norvegicus [22]
  Activity: 197.32 nM/mg
Rattus norvegicus [36]
  Activity: Active
Rattus norvegicus [23]
  Activity: 76.18 mg/dL
Rattus norvegicus [24]
  Activity: 114.79 mg/dL
Rattus norvegicus [25]
  Activity: 15.23 mg/dL
Rattus norvegicus [26]
  Activity: 41.32 U/L
Rattus norvegicus [27]
  Activity: Active
[28]
  Drug recovery: 96.1%
Rattus norvegicus [29]
  Activity: Active
[30]
  Drug recovery: 97.1%
Rattus norvegicus [31]
  Activity: 47.8 mg/dL
Rattus norvegicus [32]
  Activity: Active
[34]
  Drug recovery: 101%
Rattus norvegicus [35]
  Activity: Active

## Cc1ccc(/C=C2\SC(=O)N(CC(=O)N3CCC[C@@H]3C#N)C2=O)cc1
L6
  Activity: 64.57%

## N#C[C@H]1CCCN1C(=O)CN1C(=O)S/C(=C\c2ccco2)C1=O
L6
  Activity: 57.4%

## O=C1NC(=O)C(Cc2ccc(OCc3cccc(Br)c3)cc2)S1 (stereo unspecified)
[37]
  Activity: 21.2%

## COc1cc(/C=C2\SC(=O)N(CC(=O)N3CCC[C@@H]3C#N)C2=O)cc(OC)c1OC
L6
  Activity: 69.74%

## N#C[C@H]1CCCN1C(=O)CN1C(=O)S/C(=C\c2ccccc2O)C1=O
L6
  Activity: 72.86%

## COc1ccc(/C=C2\SC(=O)N(CC(=O)N3CCC[C@@H]3C#N)C2=O)cc1OC
L6
  Activity: 64.56%

## N#C[C@H]1CCCN1C(=O)CN1C(=O)S/C(=C\c2ccccc2)C1=O
L6
  Activity: 63.23%
